Laboratory results taken from patent publication US20060069132A1, “Azolecarboxamide herbicides” (priority 2004, published 2006).

How the values were obtained:
Assay in all cases: Test E pre-/postemergence herbicide test
large crabgrass = type: in vivo, Digitaria sanguinalis
In short: (§1)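 In this greenhouse assay, compounds in a solvent vehicle containing surfactant were applied pre- and postemergence, the latter to plants 2 to 18 cm high. Control was judged by eye after 12 to 14 days on a 0 to 100 scale.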

pitted morningglory = type: in vivo, Ipomoea lacunosa
In short: as §1

common ragweed = type: in vivo, Ambrosia elatior
In short: as §1

dallisgrass = type: in vivo, Paspalum dilatatum
In short: as §1

barnyardgrass = type: in vivo, Echinochloa crus-galli
In short: as §1

Canada horseweed = type: in vivo, Erigeron Canadensis
In short: as §1

field bindweed = type: in vivo, Convolvulus arvensis
In short: as §1

common mallow = type: in vivo, Malva sylvestris
In short: as §1

Russian thistle = type: in vivo, Salsola kali
In short: as §1

kochia = type: in vivo, Kochia scoparia
In short: as §1

[1] = Preemergence, 62 g ai/ha, scale 0 to 100
[2] = Preemergence, 125 g ai/ha, scale 0 to 100
[3] = Preemergence, 250 g ai/ha, scale 0 (no effect) to 100 (complete control)
[4] = Postemergence, 500 g ai/ha, scale 0 to 100
[5] = Postemergence, 250 g ai/ha, scale 0 to 100
[6] = Preemergence, 500 g ai/ha, scale 0 (no effect) to 100 (complete control)
[7] = postemergence, 125 g ai/ha, scale 0 to 100
[8] = postemergence, 62 g ai/ha, scale 0 to 100

## CCc1nn(C(C)C)nc1C(=O)Nc1cccc(C(=O)N2CCCCC2)c1 [Compound 385]
Large crabgrass; [1]
  Plant response rating, Crabgrass, Large: 80
Large crabgrass; [2]
  Plant response rating, Crabgrass, Large: 80
Large crabgrass; [3]
  Plant response rating, Crabgrass, Large: 80
Pitted morningglory; [1]
  Plant response rating, Morningglory: 10
Pitted morningglory; [2]
  Plant response rating, Morningglory: 10
Pitted morningglory; [3]
  Plant response rating, Morningglory: 10
Common ragweed; [1]
  Plant response rating, Ragweed: 0
Common ragweed; [2]
  Plant response rating, Ragweed: 0
Common ragweed; [3]
  Plant response rating, Ragweed: 0
dallisgrass; [1]
  Plant response rating, Dallisgrass: 10
dallisgrass; [2]
  Plant response rating, Dallisgrass: 30
dallisgrass; [3]
  Plant response rating, Dallisgrass: 50
barnyardgrass; [1]
  Plant response rating, Barnyardgrass: 20
barnyardgrass; [2]
  Plant response rating, Barnyardgrass: 50
barnyardgrass; [3]
  Plant response rating, Barnyardgrass: 70
Canada horseweed; [1]
  Plant response rating, Horseweed: 0
Canada horseweed; [3]
  Plant response rating, Horseweed: 0
Field bindweed; [1]
  Plant response rating, Bindweed, Field: 10
Field bindweed; [2]
  Plant response rating, Bindweed, Field: 10
Field bindweed; [3]
  Plant response rating, Bindweed, Field: 20
Common mallow; [1]
  Plant response rating, Mallow: 10
Common mallow; [2]
  Plant response rating, Mallow: 10
Common mallow; [3]
  Plant response rating, Mallow: 20
Russian thistle; [2]
  Plant response rating, Thistle: 50

## CCn1nc(C(C)(C)C)cc1C(=O)Nc1cc(C(=O)N(C)C)ccn1 [Compound 156, 2-[[[3-(1,1-dimethylethyl)-1-ethyl-1H-pyrazol-5-yl]carbonyl]amino]-N,N-dimethyl-4-pyridinecarboxamide]
Large crabgrass; [4]
  Plant response rating, Crabgrass, Large: 98
Large crabgrass; [5]
  Plant response rating, Crabgrass, Large: 95
Large crabgrass; [2]
  Plant response rating, Crabgrass, Large: 90
Large crabgrass; [3]
  Plant response rating, Crabgrass, Large: 95
Large crabgrass; [6]
  Plant response rating, Crabgrass, Large: 95
Large crabgrass; [7]
  Plant response rating, Crabgrass, Large: 80
Large crabgrass; [8]
  Plant response rating, Crabgrass, Large: 35
kochia; [4]
  Plant response rating, Kochia: 100
kochia; [5]
  Plant response rating, Kochia: 100
kochia; [1]
  Plant response rating, Kochia: 100
kochia; [2]
  Plant response rating, Kochia: 100
kochia; [3]
  Plant response rating, Kochia: 100
kochia; [6]
  Plant response rating, Kochia: 100
kochia; [7]
  Plant response rating, Kochia: 100
Pitted morningglory; [4]
  Plant response rating, Morningglory: 90
Pitted morningglory; [5]
  Plant response rating, Morningglory: 80
Pitted morningglory; [1]
  Plant response rating, Morningglory: 30
Pitted morningglory; [2]
  Plant response rating, Morningglory: 100
Pitted morningglory; [3]
  Plant response rating, Morningglory: 100
Pitted morningglory; [6]
  Plant response rating, Morningglory: 100
Pitted morningglory; [7]
  Plant response rating, Morningglory: 65
Pitted morningglory; [8]
  Plant response rating, Morningglory: 10
Common ragweed; [4]
  Plant response rating, Ragweed: 98
Common ragweed; [5]
  Plant response rating, Ragweed: 90
Common ragweed; [1]
  Plant response rating, Ragweed: 50
Common ragweed; [2]
  Plant response rating, Ragweed: 90
Common ragweed; [3]
  Plant response rating, Ragweed: 95
Common ragweed; [6]
  Plant response rating, Ragweed: 100
Common ragweed; [7]
  Plant response rating, Ragweed: 90
Common ragweed; [8]
  Plant response rating, Ragweed: 80
dallisgrass; [4]
  Plant response rating, Dallisgrass: 90
dallisgrass; [5]
  Plant response rating, Dallisgrass: 90
dallisgrass; [1]
  Plant response rating, Dallisgrass: 90
dallisgrass; [2]
  Plant response rating, Dallisgrass: 95
dallisgrass; [3]
  Plant response rating, Dallisgrass: 100
dallisgrass; [6]
  Plant response rating, Dallisgrass: 100
dallisgrass; [7]
  Plant response rating, Dallisgrass: 85
dallisgrass; [8]
  Plant response rating, Dallisgrass: 75
barnyardgrass; [4]
  Plant response rating, Barnyardgrass: 98
barnyardgrass; [5]
  Plant response rating, Barnyardgrass: 98
barnyardgrass; [1]
  Plant response rating, Barnyardgrass: 100
barnyardgrass; [2]
  Plant response rating, Barnyardgrass: 100
barnyardgrass; [3]
  Plant response rating, Barnyardgrass: 100
barnyardgrass; [6]
  Plant response rating, Barnyardgrass: 100
barnyardgrass; [7]
  Plant response rating, Barnyardgrass: 95
barnyardgrass; [8]
  Plant response rating, Barnyardgrass: 90
Canada horseweed; [4]
  Plant response rating, Horseweed: 100
Canada horseweed; [5]
  Plant response rating, Horseweed: 100
Canada horseweed; [1]
  Plant response rating, Horseweed: 95
Canada horseweed; [2]
  Plant response rating, Horseweed: 100
Canada horseweed; [3]
  Plant response rating, Horseweed: 100
Canada horseweed; [6]
  Plant response rating, Horseweed: 100
Field bindweed; [4]
  Plant response rating, Bindweed, Field: 100
Field bindweed; [5]
  Plant response rating, Bindweed, Field: 80
Field bindweed; [1]
  Plant response rating, Bindweed, Field: 60
Field bindweed; [2]
  Plant response rating, Bindweed, Field: 90
Field bindweed; [3]
  Plant response rating, Bindweed, Field: 100
Field bindweed; [6]
  Plant response rating, Bindweed, Field: 100
Field bindweed; [7]
  Plant response rating, Bindweed, Field: 65
Field bindweed; [8]
  Plant response rating, Bindweed, Field: 65
Common mallow; [4]
  Plant response rating, Mallow: 100
Common mallow; [5]
  Plant response rating, Mallow: 95
Common mallow; [1]
  Plant response rating, Mallow: 70
Common mallow; [2]
  Plant response rating, Mallow: 100
Common mallow; [3]
  Plant response rating, Mallow: 100
Common mallow; [6]
  Plant response rating, Mallow: 100
Common mallow; [7]
  Plant response rating, Mallow: 90
Common mallow; [8]
  Plant response rating, Mallow: 80
Russian thistle; [5]
  Plant response rating, Thistle: 80
Russian thistle; [1]
  Plant response rating, Thistle: 80
Russian thistle; [2]
  Plant response rating, Thistle: 100
Russian thistle; [6]
  Plant response rating, Thistle: 100
